Assay results taken from patent US7205332B2, “Deoxoartemisinin analogs, process for their preparation, and anticancer agent comprising them” (Industry-Academic Cooperation Foundation, Yonsei University, priority 2003, dated 2007).
≈ marks a conversion by molar mass, not a printed value. Read-outs that look alike come from different tables or passages of the source.

Experiments:
[1] = tested on: P388: mouse fibroblast leukemia cell; assay: micro-culture tetrazolium assay, in vitro cytotoxicity on P388; assay type: cell-based; conditions: for anticancer activity, fold higher than that of mitomycin: versus mitomycin
[2] = tested on: HT-29: human colorectal adenocarcinoma cell; assay: micro-culture tetrazolium assay, in vitro cytotoxicity on HT-29; assay type: cell-based; conditions: for IC50: read-out: In vitro cytotoxicities (IC50) HT-29
Experimental: (§1) The anticancer activities of the deoxoartemisinin dimer and trimer of the present invention were measured by a known micro-culture tetrazolium assay (see Carmichel, J.; DeGraff, W. G; Gazdar, A. F.; Minna, J. D.; Mitchell, J. B., Evaluation of a Tetrazolium-based Semiautomated Colorimetric Assay: Assessment of Chemosensitivity testing, Cancer Res., 1987, 47, 936–42).

[3] = tested on: MCF7: human breast carcinoma cell; assay: micro-culture tetrazolium assay, in vitro cytotoxicity on MCF7; assay type: cell-based
[4] = tested on: Bewo: human choriocarcinoma cell; assay: micro-culture tetrazolium assay, in vitro cytotoxicity on Bewo; assay type: cell-based; conditions: for IC50: read-out: In vitro cytotoxicities (IC50) Bewo
EL4: mouse thymoma cell = assay: micro-culture tetrazolium assay, in vitro cytotoxicity on EL4; assay type: cell-based; conditions: for IC50: read-out: In vitro cytotoxicities (IC50) EL4
[5] = tested on: SKOV3: human ovarian carcinoma cell; assay: micro-culture tetrazolium assay, in vitro cytotoxicity on SKOV3; assay type: cell-based; conditions: SK-OV-3, read-out: In vitro cytotoxicities (IC50) SKOV3
Experimental: as §1

water solubility = assay type: physicochemical
[6] = tested on: A549: human lung cancer cell; assay: micro-culture tetrazolium assay, in vitro cytotoxicity on A549; assay type: cell-based
[7] = tested on: PANC-1: human pancreatic cancer cell; assay: micro-culture tetrazolium assay, in vitro cytotoxicity on PANC-1; assay type: cell-based; conditions: for IC50: PANC-1 human pancreatic cancer cell, read-out: In vitro cytotoxicities (IC50) PANC-1
Experimental: as §1

[8] = P388 mouse fibroblast leukemia cell
[9] = MCF7 human breast carcinoma cell
[10] = Bewo human choriocarcinoma cell
[11] = P388 mouse fibroblast leukemia cell, read-out: In vitro cytotoxicities (IC50) P388
[12] = MCF7 human breast carcinoma cell, read-out: In vitro cytotoxicities (IC50) MCF7

Compound | IC50 [1, 11] [µg/mL] | IC50 [2] [µg/mL] | IC50 [3, 12] [µg/mL] | IC50 [4, 10] [µg/mL] | IC50 (EL4: mouse thymoma cell; EL4 mouse thymoma cell) [µg/mL] | IC50 [5] [µg/mL] | further results
12-(4′-aminobutyl)deoxoartemisinin dimer [Compound (IVc′)] |  |  |  |  |  |  | In vitro cytotoxicities (IC50) P388 [1, 8]: >20 µg/mL; In vitro cytotoxicities (IC50) HT-29 [2]: 20.20 µg/mL; In vitro cytotoxicities (IC50) MCF7 [3, 9]: >20 µg/mL; In vitro cytotoxicities (IC50) Bewo [4, 10]: >20 µg/mL; In vitro cytotoxicities (IC50) EL4 (EL4: mouse thymoma cell; EL4 mouse thymoma cell): >20 µg/mL
COc1cccc2c1C(=O)c1c(O)c3c(c(O)c1C2=O)C[C@@](O)(C(=O)CO)C[C@@H]3O[C@H]1C[C@H](N)[C@H](O)[C@H](C)O1 [Adriamycin, reference compound] | 0.39 (≈ 0.718 µM) | 0.1 (≈ 0.184 µM) | 0.12 (≈ 0.221 µM) | 6.24 (≈ 11.5 µM) | 0.67 (≈ 1.23 µM) |  | 
C[C@H]1[C@@H](CCSCC[C@H]2O[C@@H]3O[C@@]4(C)CC[C@H]5[C@H](C)CC[C@@H]([C@H]2C)[C@@]35OO4)O[C@@H]2O[C@@]3(C)CC[C@H]4[C@H](C)CC[C@@H]1[C@@]24OO3 [Compound (IVa1), 12-(2′-ethylsulfide)deoxoartemisinin dimer] | 0.4 (≈ 0.642 µM) | 0.24 (≈ 0.385 µM) | 0.017 (≈ 0.0273 µM) | 14.2 (≈ 22.8 µM) | 0.23 (≈ 0.369 µM) |  | anticancer activity, fold higher than that of mitomycin ([1]; P388): at least 4 fold
CC1CCC2C(C)C(CCS(=O)(=O)CCC3OC4OC5(C)CCC6C(C)CCC(C3C)C46OO5)OC3OC4(C)CCC1C32OO4 (centres unmarked) [Compound (IVa2), 12-(2′-sulfonylethyl)deoxoartemisinin dimer] |  |  |  |  |  |  | In vitro cytotoxicities (IC50) P388 [1, 8]: 5.60 µg/mL; In vitro cytotoxicities (IC50) HT-29 [2]: 0.38 µg/mL; In vitro cytotoxicities (IC50) MCF7 [3, 9]: 0.025 µg/mL; In vitro cytotoxicities (IC50) Bewo [4, 10]: 1.04 µg/mL; anticancer activity, fold higher than that of taxol and adriamycin ([4]; Bewo, versus taxol and adriamycin): at least 6 fold; In vitro cytotoxicities (IC50) EL4 (EL4: mouse thymoma cell; EL4 mouse thymoma cell): 0.54 µg/mL
C[C@H]1[C@@H](CCNC(=O)CC[C@H]2O[C@@H]3O[C@@]4(C)CC[C@H]5[C@H](C)CC[C@@H]([C@H]2C)[C@@]35OO4)O[C@@H]2O[C@@]3(C)CC[C@H]4[C@H](C)CC[C@@H]1[C@@]24OO3 [Compound (IVc), 12-(2′-amidethyl)deoxoartemisinin Dimer] | 10.4 (≈ 16.4 µM) | 0.69 (≈ 1.09 µM) | 0.005 (≈ 0.00789 µM) | 7.5 (≈ 11.8 µM) | 6.29 (≈ 9.92 µM) | 12.6 (≈ 19.9 µM) | anticancer activity, fold higher than that of adriamycin ([3]; MCF7, versus adriamycin): at least 24 fold; anticancer activity, fold higher than that of mitomycin ([3]; MCF7, versus mitomycin): at least 200 fold
C[C@H]1[C@@H](CCNC(=O)CC[C@H](N)C(=O)NCC[C@H]2O[C@@H]3O[C@@]4(C)CC[C@H]5[C@H](C)CC[C@@H]([C@H]2C)[C@@]35OO4)O[C@@H]2O[C@@]3(C)CC[C@H]4[C@H](C)CC[C@@H]1[C@@]24OO3 [Compound (IVd), 12-[2′-(N-glutamic)-α,β-amide]deoxoartemisinin dimer] | 15.6 (≈ 21.3 µM) | 6.5 (≈ 8.86 µM) | 15.3 (≈ 20.8 µM) | > 20 | 16.5 (≈ 22.5 µM) |  | water solubility relative to artemisinin (water solubility; compared with artemisinin): five times more water soluble; solubility (water solubility; water): 5210 µg/mL (≈ 7100 µM)
C[C@H]1[C@@H](CCNC(=O)CC[C@H](NC(=O)CC[C@H]2O[C@@H]3O[C@]4(C)CC[C@H]5[C@H](C)CC[C@@H]([C@H]2C)[C@@]35OO4)C(=O)NCC[C@H]2O[C@@H]3O[C@]4(C)CC[C@H]5[C@H](C)CC[C@@H]([C@H]2C)[C@@]35OO4)O[C@@H]2O[C@]3(C)CC[C@H]4[C@H](C)CC[C@@H]1[C@@]24OO3 [Compound (IVe), deoxoartemisinin trimer] | 0.12 (≈ 0.114 µM) | 0.09 (≈ 0.0852 µM) | 0.017 (≈ 0.0161 µM) | 18.3 (≈ 17.3 µM) | 1.07 (≈ 1.01 µM) | 11.2 (≈ 10.6 µM) | IC50 ([6]; A549 human lung cancer cell, read-out: In vitro cytotoxicities (IC50) A549): 2.45 µg/mL (≈ 2.32 µM); anticancer activity, fold higher than that of adriamycin ([1]; P388, versus adriamycin): at least 3 fold; anticancer activity, fold higher than that of mitomycin ([1]; P388): at least 12 fold; anticancer activity, fold higher than that of taxol ([1]; P388, versus taxol): at least 20 fold; IC50 [7]: 2.69 µg/mL (≈ 2.55 µM); anticancer activity, fold higher than that of taxol ([7]; human pancreatic cancer cell, versus taxol): at least 2 fold; melting point: 138 °C
CO[C@@]12[C@H](COC(N)=O)C3=C(C(=O)C(C)=C(N)C3=O)N1C[C@@H]1N[C@@H]12 [Mitomycin, reference compound] |  | 0.02 (≈ 0.0598 µM) |  |  |  |  | IC50 ([6]; Homo sapiens, A549, read-out: In vitro cytotoxicities (IC50) A549): 1.85 µg/mL (≈ 5.53 µM); IC50 ([1]; Mus musculus, P388, read-out: In vitro cytotoxicities (IC50) P388): 1.5 µg/mL (≈ 4.49 µM); IC50 ([3]; Homo sapiens, MCF7, read-out: In vitro cytotoxicities (IC50) MCF7): 0.93 µg/mL (≈ 2.78 µM); IC50 ([4]; Homo sapiens, BeWo): 0.85 µg/mL (≈ 2.54 µM); IC50 (EL4: mouse thymoma cell; Mus musculus): 3.94 µg/mL (≈ 11.8 µM)
CC(=O)O[C@H]1C(=O)[C@@]2(C)[C@H]([C@H](OC(=O)c3ccccc3)[C@]3(O)C[C@H](OC(=O)[C@H](O)[C@@H](NC(=O)c4ccccc4)c4ccccc4)C(C)=C1C3(C)C)[C@]1(OC(C)=O)CO[C@@H]1C[C@@H]2O [Taxol, reference compound] | 2.27 (≈ 2.66 µM) | 0.01 (≈ 0.0117 µM) |  | 7.39 (≈ 8.65 µM) | 1.34 (≈ 1.57 µM) | 12.3 (≈ 14.4 µM) | IC50 [7]: 5.76 µg/mL (≈ 6.75 µM)
